{"source": "patent US20110081429A1", "about": "“COMPOSITION FOR EXTERNAL USE” (priority 2008, published 2011)", "system": "IGF-1 secretion in the skin", "assay": "IGF-1 concentration in the skin after application of essential oil and/or AMP (Experimental Example 1)", "format": "in vivo, hairless mice (Hos: HR-1)", "conditions": "hairless mice, 400 μl on back skin (3 cm×5 cm), 30 minutes after the application; FIG. 1a-1c", "method": "In order to examine how the effect of essential oils on the amount of IGF-1 secretion in the skin is affected by AMP, the following compositions containing an essential oil and AMP (Examples 1 to 3 and Comparative Examples 1 to 5) were prepared by a standard method. The pH of each composition was adjusted with NaOH such that the pH ranged from 6.5 to 7.0.\n400 μl of a test solution was applied to the skin on the back (3 cm×5 cm) of hairless mice (Hos: HR-1, Japan SLC, Inc., female, 6 to 8 weeks age). 30 minutes after the application, the skin was extracted and frozen-crushed. Then, the IGF-1 concentration in the skin was measured using Quantikine (registered trademark) Mouse IGF-1 Immunoassay (R&D Systems, Inc.).\nThe composition shown in Table 1 was used as a test solution.\nThe secreted IGF-1 concentration was measured according to the method described in Experiment 1-1. The composition shown in Table 1 above was used as a test solution.", "note": "“Also recorded” adds a separate entry of the source."}
{"smiles": "Nc1ncnc2c1ncn2[C@@H]1O[C@H](COP(=O)(O)O)[C@@H](O)[C@H]1O", "note": "[AMP, adenosine-5′-monophosphate]", "values": [{"measurement": "stimulatory effect on IGF-1 secretion (IGF-1 concentration in the skin)", "result": "did not produce a stimulatory effect on IGF-1 secretion when used alone; also recorded: neither AMP or Scotch pine needle oil stimulated IGF-1 secretion when used alone; also recorded: did not produce a sufficient stimulatory effect on IGF-1 secretion"}]}
